Source: US12629415B2, “Vaccine adjuvants” (THE PROVOST, FELLOWS, FOUNDATION SCHOLARS, AND THE OTHER …, priority 2018, dated 2026)
“Also recorded” adds a separate entry of the source.

Tests used:
PBMCs or CBMCs [1] = assay: HEK-Blue TNFα assay on supernatants; type: cell-based, human; conditions: CBMCs compared with PBMCs; 4, 8 or 24 hours
Experimental: (§1) Poly(I:C) (5 μg/ml) (Invivogen), Poly(dA:dT) (5 μg/ml) (Sigma-Aldrich), 2′3′ cGAMP (10 μg/ml), 5′ triphosphate double stranded RNA (5′ ppp dsRNA) (2.5 μg/ml) and HSV-60 (2 μg/ml) (all from Invivogen) were transfected into PBMCs or CBMCs using TransIT-X2 (Mirus).
(§2) Measurement of cytokines—HEK Blue TNFα/IFNα/β Assays were performed as per the manufacturer's (Invivogen) instructions using Quanti-Blue Detection Reagent. SEAP levels were determined using a spectrophotometer plate reader at 630 nm. IFNα (3425-1H-6, Mabtech) and IP-10 (DY266, R&D Systems) were detected by sandwich ELISA. IFNα ELISA used pan specific IFNα antibodies, which allows detection of IFNα subtypes 1/13, 2, 4, 5, 6, 7, 8, 10, 14, 16 and 17. BioLegend LEGENDplex™ Human Inflammation Panel (13-plex) was carried out as per manufacturer's (Biolegend) instructions to determine levels of IFNγ, IL-10, IL-12p70 and IL-23. A BD LSR Fortessa cell analyser was used to acquire samples and BioLegend LEGENDplex™ software was used for analysis.

[2] = tested on: adult PBMCs or neonatal CBMCs; assay: HEK-Blue IFNα/β SEAP assay on supernatants of stimulated mononuclear cells; type: cell-based, human; conditions: for innate immune response in neonatal and/or paediatric blood: compared with adult blood, summary statement
Experimental: Isolation of mononuclear cells and monocytes—Primary PBMCs or CBMCs were isolated from healthy human blood or cord blood. Monocytes were isolated by negative selection using Monocyte Isolation Kit II (Miltenyi). […] Cells were cultured at 37° C., 5% CO2, 95% air in RPMI-1640, with stable 2.5 mM L-glutamine and 0.5 mM sodium pyruvate with 10% FBS (all from Sigma-Aldrich).
as §1, §2

PBMCs or CBMCs [3] = assay: IFNα sandwich ELISA on supernatants; type: cell-based, human; conditions: for IFNα secretion (ELISA): CBMCs compared with PBMCs, 8 or 24 h
Experimental: as §1, §2

bovine PBMCs = assay: Bovine IFN-γ ELISA on stimulated PBMCs; type: cell-based, cattle; conditions: calves <1 year old; ConA 1 μg/ml with or without LPS 100 pg/ml; 72 hours
Experimental: Bovine peripheral blood mononuclear cells were isolated from whole blood samples collected in 9m1 vacutainers containing Heparin anticoagulant. PBMCs were spun and separated using leucosep tubes (Cruinn) and a density gradient histopaque 1077 (Sigma-Aldrich) at a speed of 1200 g for 20 minutes. Red blood cell contamination was eliminated using sterile 0.25% sodium chloride (Baxter) as a lysis buffer. The cells were subsequently washed twice in PBS at a speed of 600 g for 10 minutes to remove impurities.
Cells were counted using a haemocytometer, microscope and trypan blue (Sigma Aldrich) and seeded at appropriate densities in tissue culture plates (Cruinn) containing media. The cells were incubated at 37° C. at 5% CO2 treated within hours of plating to avoid unwanted cell death.
When analysing the effects of IL-1β on T cell activation, cells were pre-treated with 250 μg/ml of IL-1 receptor antagonist (IL-1Ra) 40 minutes before stimulation with IL-1β (25 ng/ml). Cells were subsequently stimulated with concanavalin A (1 μg/ml) 1 hour after addition of IL-1β. Similarly, when analysing the effects of polydA:dT on T cell activation, cells were stimulated with polydA:dT (1 μg/ml) 1 hour before ConA treatment (1 μg/ml). LPS (100 pg/ml) primed cells were incubated with YVAD-FMK (10 μm), an inhibitor specific for caspase-1. After 40 minutes, the cells were stimulated with alum (50 μg/ml) for 24 hours and supernatants were then harvested and analysed by ELISA for IL-1β
Capture antibodies (50 μl/well), diluted in the appropriate buffers, were dispensed into the wells of high binding plates (Greiner Bio-One) and incubated overnight at room temperature or 4° C. For analysis of IL-17, the ELISA plates were pre-coated with capture antibody by the manufacturing before delivery. The wells were washed with PBS/Tween 3 times and the plates were then incubated with 150 μl of blocking buffer for 1 hour at room temperature. The plates were washed again before supernatant (neat or diluted) and recombinant standards were added for 1 hour at room temperature. Following this, the plates were washed and 50 μl of detection antibody was added to the wells for a period of 1 or 2 hours at room temperature. After washing, 50 μl diluted streptavidin-HRP was added to the plate for between 30 minutes and 1 hour. After the final wash, 50 μl of 3,3′-, 5,5′-Tetramethylbenzidine (TMB) substrate was added and the plates were incubated in the dark. The reaction was stopped by addition of 1M sulphuric acid and the absorbance readings were measured at 450 nm using a microtitre plate reader. The cytokine concentrations were calculated using a linear regression standard curve from recombinant cytokines of known concentration. Skanit™ software was used to estimate values.

PBMCs or CBMCs [4] = assay: Quantitative RT-PCR of TNFα, IFNα and CXCL10 mRNA; type: cell-based, human; conditions: CBMCs vs PBMCs
Experimental: as §1
Quantitative RT-PCR—Total RNA from PBMCs or CBMCs was extracted using trizol extraction as previously described (16) and was reverse transcribed using MMLV Reverse Transcriptase (Promega) according to the manufacturer's protocol. This cDNA served as template for amplification of target genes, along with the ‘housekeeping’ gene βActin, by real-time PCR with SensiFast SYBR Green (Bioline) to determine the relative amounts of CXCL10, IFNα and TNFα mRNA. The ABI 7900HT system (Applied Biosystems) was used for real-time PCR, and the cycling threshold method (2^−(ΔΔCt)) was used for relative quantification by comparative method after normalization to βActin expression.

IRF7 = assay: TransAM IRF7 activation assay on nuclear extracts; type: cell-based, human; conditions: CBMCs; LPS 15 min, CpG 1 h, Poly(I:C) transfection 1 h
Experimental: (§3) IRF3/7 activation—Active Motif TransAM™ IRF3 and IRF7 assays were carried out on nuclear extracts from PBMCs or CBMCs, harvested as per manufacturer's (Active Motif) instructions, to detect and quantify IRF3 or IRF7 activation.

IRF3 = assay: TransAM IRF3 activation assay on nuclear extracts; type: cell-based, human; conditions: CBMCs
Experimental: as §3

PBMCs or CBMCs [5] = assay: CXCL10 (IP-10) ELISA; type: cell-based, human; conditions: CBMCs compared with PBMCs
Experimental: as §1, §2

PBMCs or CBMCs [6] = assay: BioLegend LEGENDplex Human Inflammation Panel; type: cell-based; conditions: CBMCs and PBMCs; Poly(I:C) 24 h, LPS 4 h, CpG ODN 24 h
Experimental: as §1, §2

[7] = tested on: mononuclear cells from cord blood, children's blood or adult blood; assay: HEK-Blue IFNα/β and TNFα assays on mononuclear cells of cord blood, children and adults; type: cell-based, human; conditions: transfection 24 h, 4-24 months, 2-5 years, 6-11 years
Excerpt: Umbilical cord blood samples were obtained from term births following normal pregnancy, labour and delivery at National Maternity Hospital (NMH), Holles St, Dublin 2. […] Venous blood from infants, children and adolescents of various ages was collected during elective surgical procedures where no indication of infection was present (such as hydrocele repair, umbilical hernia repair, onychocryptosis, orchipexy repair) in Our Lady's Children's Hospital Crumlin (OLCHC), Dublin 12. […] Volumes drawn were age and weight dependent, according to standard, approved guidelines. Ethics approval was obtained from the Ethics Committees of NMH and OLCHC and informed consent was obtained from each subject or their parent/guardian. Adult blood samples were from healthy adults, supplied by the Irish Blood Transfusion Service. • Poly(I:C), Poly(dA:dT) and cGAMP were obtained from Invivogen • Poly (dA:dT) is a repetitive synthetic double-stranded DNA sequence of poly(dA-dT)-poly(dT-dA) http://www.invivopen.com/poly-dadt-naked • Poly (I:C) comprises long strands of inosine poly(I) homopolymer annealed to strands of cytidine poly(C) homopolymer http://www.invivogen.com/polyic-hmw. • cGAMP is cyclic [G(2′,5′)pA(3′,5′)p]; Formula: […], 2Na Methodology
Isolation of mononuclear cells and monocytes—Primary PBMCs or CBMCs were isolated from healthy human blood or cord blood. Monocytes were isolated by negative selection using Monocyte Isolation Kit II (Miltenyi). Monocyte purity was assessed using CD14 staining and was routinely 85-95%. Cells were cultured at 37° C., 5% CO2, 95% air in RPMI-1640, with stable 2.5 mM L-glutamine and 0.5 mM sodium pyruvate with 10% FBS (all from Sigma-Aldrich).
as §1, §2

With `CCCc1nc2c(N)nc3ccccc3c2s1` [CL075, reference compound] the TNFα production (PBMCs or CBMCs [1]) was “no significant difference in TNFα production”.

With `Nc1nc2c(ncn2[C@@H]2O[C@@H]3COP(=O)(O)O[C@H]4[C@@H](O)[C@H](n5cnc6c(N)ncnc65)O[C@@H]4COP(=O)(O)O[C@@H]2[C@@H]3O)c(=O)[nH]1` [cGAMP, cyclic [G(2′,5′)pA(3′,5′)p]] the “innate immune response in neonatal and/or paediatric blood” value [2] was “robust innate immune response in neonatal and/or paediatric blood”, the “IFNα secretion (ELISA)” value (PBMCs or CBMCs [3]) was “CBMCs responded equally well or with enhanced IFNα-production when compared with PBMCs” and the “level of IFNα produced, relative to Poly(I:C) or Poly(dA:dT)” value (PBMCs or CBMCs [3]; adult and neonatal cells) was “lower than that in response to either Poly(I:C) or Poly(dA:dT)”. For the same compound, the TNFα production (PBMCs or CBMCs [1]) was “significantly more TNFα production from neonatal cells than from adult cells”.

With “interleukin 1: cytokine interleukin 1 added with ConA [reference compound]” the “IFN-γ secretion by ConA stimulated bovine PBMCs” value (bovine PBMCs) was “enhanced IFN production”.

“polyinosinic-polycytidylic acid [Poly(I:C)]” was tested, and the “innate immune response in neonatal and/or paediatric blood” value [2] was “robust innate immune response in neonatal and/or paediatric blood”, the “type I IFN (IFNα/β) production” value ([2]; neonatal CBMCs compared with adult PBMCs, stimulation 4, 8 or 24 h) was “no inhibition of type I IFN production in CBMCs when compared to PBMCs” and the “IFNα secretion (ELISA)” value (PBMCs or CBMCs [3]) was “equivalent or enhanced CNA sensor responses in neonates compared to adults”. For the same compound, the TNFα production (PBMCs or CBMCs [1]) was “significantly more TNFα production from neonatal cells than from adult cells”, the “CXCL10 mRNA expression” value (PBMCs or CBMCs [4]; 4 h) was “no inhibition of transcription” and the “IFNα mRNA expression” value (PBMCs or CBMCs [4]; 24 h) was “no inhibition of transcription”. For the same compound, the “TNFα mRNA expression” value (PBMCs or CBMCs [4]; CNA 4 h, LPS 2 h) was “no significant difference in TNFα levels”, the IRF7 activation (IRF7) was “not significantly activated” and the “increase in IRF3 activation above basal levels” value (IRF3) was about 80%. The CXCL10 protein secretion (PBMCs or CBMCs [5]) was “no significant difference in the CXCL10 response between PBMCs or CBMCs”, the IFNγ (PBMCs or CBMCs [6]) was “induces Th1 polarising IL-12p70 and IFNγ in CBMCs; also recorded: significantly increased in CBMCs compared to PBMCs; also recorded: neonates produced significantly higher levels of both IL-12p70 and IFNγ” and the IL-10 (PBMCs or CBMCs [6]) was “low but detectable, with no significant difference between adult and cord blood cells noted; also recorded: no difference in levels of anti-inflammatory IL-10 or Th17-polarising IL-23 between neonates and adults”. For the same compound, the IL-12p70 (PBMCs or CBMCs [6]) was “induces Th1 polarising IL-12p70 and IFNγ in CBMCs; also recorded: increased in CBMCs compared to PBMCs; also recorded: significantly enhanced response to Poly(I:C) transfection was found in CBMCs compared to PBMCs; also recorded: neonates produced significantly higher levels of both IL-12p70 and IFNγ”, the IL-23 (PBMCs or CBMCs [6]) was “low but detectable, with no significant difference between adult and cord blood cells noted; also recorded: no difference in levels of anti-inflammatory IL-10 or Th17-polarising IL-23 between neonates and adults” and the “TNFα production across age groups” value [7] was “maintenance of cord blood responsiveness to CNA was also observed for both Poly(I:C) and Poly(dA:dT)-induced TNFα production to the age of 24 months”. For the same compound, the “production of type I IFN across age groups” value [7] was “maintained throughout childhood; also recorded: maintained up to the age of two”.
